Test results as given in patent publication US7553821B2, “Methods for selectively modulating survivin apoptosis pathways” (Yale University, priority 2000, dated 2009).

Test system: HeLa cells
Test: Nuclear morphology of apoptosis (DAPI) in transfected HeLa cells
Assay type: cell-based
Excerpt: HeLa cells transfected with GFP-vector (vector), GFP-survivin(T34A) (T34A), or GFP-caspase-9 (Met^1-Asp^330) (caspase-9), were scored morphologically for nuclear integrity by DAPI staining after 48-h. Arrows, nuclear fragmentation and chromatin condensation in GFP-expressing cells.
The experimental procedures are the same as in A. Data are the meaνSEM of four independent experiments.
HeLa cells were transfected with the various indicated combinations of GFP-constructs, with or without etoposide (10 μg/ml) or TNFα (10 ng/ml) plus cycloheximide (10 μg/ml), harvested after 48 h, and GFP-labeled cells were morphologically scored for nuclear fragmentation by DAPI staining, as described in FIG. 2B. DN, dominant negative. Data are the mea±SEM of four independent experiments.
Transfection experiments. For transient transfection, HeLa cells in C-6 tissue culture plates (Costar, Cambridge, Mass.) at ˜60-70% confluency, were incubated in 1 ml of serum-free OptiMEM medium (Life Technologies, Gaithersburg, Md.) for 20 min, and transfected with 2.5 μg of the various plasmid cDNAs plus 9 μl Lipofectamine (Life Technologies). After a 5 h incubation at 37° C., the mixture was aspirated and substituted with complete growth medium for 48-72 h. To generate stable YUSAC-2 transfectants, a survivin(T34A) cDNA was inserted into the HindIII-SpeI sites of the pTet-splice vector (Dr. D. Schatz, Yale University School of Medicine), downstream of the regulatory sequences of the Tet-resistance operon (TetO). YUSAC-2 cells were transfected with 0.8 μg pTet-T34A, 0.8 μg of the transactivation/selection plasmid ptTA-Neo and 5 μl Lipofectamine in 1 ml of OptiMem. Forty-eight h after transfection, cells were re-plated at low density in 15×150 mm plates in growth medium containing 1.5 mg/ml Geneticin (G418, Life Technologies), 2 mM sodium hydroxide and 0.5 μg/ml Tet (Sigma, St. Louis, Mo.) (selection medium). After a 3-week culture, ninety-six individual clones were screened for differential growth in the presence or absence of Tet. […] Flow cytometry. HeLa cells transfected with the various GFP constructs in the presence or in the absence of the broad-spectrum caspase inhibitor Z-VAD-fmk (20 μM) were harvested after 48-h (non-adherent and adherent cells), washed in PBS, pH 7.0, and fixed in cold 70% ethanol for 30 min on ice. After washes in PBS, cells (10×10^6/ml) were stained with 25 μg/ml propidium iodide (Sigma), 0.05% Triton X-100 and 100 μg/ml RNAse A (Boehringer Mannheim, Indianapolis, Ind.) for 45 min at 22° C. Gated GFP-expressing cells were analyzed for DNA content by flow cytometry on a FACSort (Becton Dickinson, San Jose, Calif.) using a Cell Quest software. In other experiments, F5-C4 cells were synchronized at the G1/S boundary by culture with 5-mM thymidine for 16 h at 37° C., in the presence or in the absence of Tet. At the end of the incubation, cells were released from the thymidine block, and harvested at 3-h intervals for DNA content analysis by propidium iodide staining and flow cytometry, or, alternatively, for caspase-9 processing by Western blotting (see below). TUNEL staining. Internucleosomal DNA fragmentation of F5.C4 cells in the presence or in the absence of Tet was carried out by end-labeling with terminal deoxynucleotidyl transferase (TdT) and peroxidase-conjugated anti-digoxigenin antibody using the ApopTag kit (Intergen, Purchase, N.Y.), as described previously (Grossman et al., 1999). Immunoprecipitation and Western blotting. Asynchronously growing or synchronized HeLa cells were lysed in 200 μl of lysis buffer containing 50 mM Tris, pH 7.5, 1% NP-40, 0.25% DOC, 150 mM NaCl, 1 mM PMSF, 10 μg/ml aprotinin, 10 μg/ml leupeptin, 10 μg/ml pepstatin, 1 mM Na3VO4, 20 mM NaF, 0.2 mM EGTA, 1 mM EDTA, pH 8.0, for 30 min at 4° C. Insoluble material was removed by centrifugation at 14,000 rpm for 15 min, and two-hundred μg of protein lysate was pre-absorbed with 25 μl of a 50:50 Protein A Sepharose slurry (Pharmacia) for 3 h at 4° C. with constant agitation. […]

Substance: survivin(T34A): dominant-negative, non-phosphorylatable survivin mutant with Thr34→Ala substitution, expressed from transfected cDNA (also HA- or GFP-tagged)
- spontaneous chromatin condensation and DNA fragmentation, GFP-expressing cells (GFP fusion, 48 h, no exogenous apoptotic stimuli): ~80%
- ability to induce spontaneous apoptosis upon transient transfection (survivin BIR domain mutants): particularly effective
